From patent US6417164B1, “Treatment of type II diabetes mellitus with amylin agonists” (Amylin Pharmaceuticals, Inc., priority 1995, dated 2002)
Ends that are not written are not given here.

Legend:
[1] = Solubility and stability characteristics compared to human amylin; type: physicochemical
Text: (§1) These preferred compounds include ^25Pro^26Val^28,29Pro-h-amylin, ^25,28,29Pro-h-amylin (also referred to herein as “AC-0137”), and ^18Arg^25,28Pro-h-amylin.

[2] = target: T1, membrane-bound amylin receptors (Rattus norvegicus, UniProt P32214+Q9JJ74); experiment: Receptor binding assay (competition with 125I Bolton Hunter rat amylin)
T1 construct: A preferred source of the membrane preparations used in the assay is the basal forebrain which comprises membranes from the nucleus accumbens; from tissue; host or cells: basal forebrain membranes (nucleus accumbens and surrounding regions)
T1 sequence (P32214 25-516): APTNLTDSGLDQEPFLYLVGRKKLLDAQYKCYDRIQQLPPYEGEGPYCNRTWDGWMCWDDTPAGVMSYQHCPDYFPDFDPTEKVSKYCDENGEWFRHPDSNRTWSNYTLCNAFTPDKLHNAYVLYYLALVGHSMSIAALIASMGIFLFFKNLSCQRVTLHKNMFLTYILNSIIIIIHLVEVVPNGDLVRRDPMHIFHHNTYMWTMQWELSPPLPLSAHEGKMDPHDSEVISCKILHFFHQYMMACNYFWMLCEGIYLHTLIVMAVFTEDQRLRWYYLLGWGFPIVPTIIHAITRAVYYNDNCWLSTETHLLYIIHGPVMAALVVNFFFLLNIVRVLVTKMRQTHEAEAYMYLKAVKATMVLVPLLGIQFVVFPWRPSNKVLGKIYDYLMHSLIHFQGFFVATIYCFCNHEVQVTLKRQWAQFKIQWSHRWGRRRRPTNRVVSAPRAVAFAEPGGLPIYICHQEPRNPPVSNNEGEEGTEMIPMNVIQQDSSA
T1 sequence (Q9JJ74 27-148): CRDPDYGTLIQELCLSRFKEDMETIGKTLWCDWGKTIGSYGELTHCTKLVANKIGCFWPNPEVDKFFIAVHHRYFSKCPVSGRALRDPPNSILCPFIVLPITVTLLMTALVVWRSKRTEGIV
Text: The receptor binding assay is described in U.S. Pat. No. 5,264,372, issued Nov. 23, 1993, the disclosure of which is incorporated herein by reference. The receptor binding assay is a competition assay which measures the ability of compounds to bind specifically to membrane-bound amylin receptors. A preferred source of the membrane preparations used in the assay is the basal forebrain which comprises membranes from the nucleus accumbens and surrounding regions. Compounds being assayed compete for binding to these receptor preparations with ^125I Bolton Hunter rat amylin. Competition curves, wherein the amount bound (B) is plotted as a function of the log of the concentration of ligand are analyzed by computer, using analyses by nonlinear regression to a 4-parameter logistic equation (Inplot program; GraphPAD Software, San Diego, Calif.) or the ALLFIT program of DeLean et. al. (ALLFIT, Version 2.7 (NIH, Bethesda, Md. 20892)). Munson, P. and Rodbard, D., Anal. Biochem. 107:220-239 (1980).

[3] = tested on: insulin-stimulated glycogen synthesis in soleus muscle; experiment: Soleus muscle assay; set-up: species or system rat
Experimental: Assays of biological activity of amylin agonists, including amylin agonist analogue preparations, in the soleus muscle are performed using previously described methods (Leighton, B. and Cooper, G. J. S., Nature, 335:632-635 (1988); Cooper, G. J. S., et al. Proc. Natl. Acad. Sci. USA 85:7763-7766 (1988)). In summary, amylin agonist activity is assessed by measuring the inhibition of insulin-stimulated glycogen synthesis in soleus muscle. Amylin antagonist activity is assessed by measuring the resumption of insulin-stimulated glycogen synthesis in the presence of 100 nM rat amylin and an amylin antagonist. Concentrations of peptide dissolved in carrier-free buffers are determined by quantitative amino acid analysis, as described therein. The ability of compounds to act as agonists in this assay is determined by measuring EC50 values. Standard errors are determined by fitting of sigmoidal dose response curves using a four parameter logistic equation (De Lean, A., Munson, P. J., Guardabasso, V. and Rodbard, D. (1988) ALLFIT, Version 2.7, National Institute of Child Health and Human Development, N.I.H. Bethesda, Md., 1 diskette). A number of amylin agonists have been characterized using these biological assays.

treated test animals = experiment: Amylin activity in vivo in treated test animals
Text: as §1

stability characteristics [1]	competition with amylin in the receptor binding assay [2]	Molecule	amylin agonist action in the soleus muscle assay [3]	antagonist activity as measured by the soleus muscle assay [3]	amylin activity in vivo (treated test animals)
more desirable	–	CC[C@H](C)[C@H](NC(=O)[C@@H]1CCCN1C(=O)CNC(=O)[C@H](Cc1ccccc1)NC(=O)[C@H](CC(N)=O)NC(=O)[C@H](CC(N)=O)NC(=O)[C@H](CO)NC(=O)[C@H](CO)NC(=O)[C@H](Cc1c[nH]cn1)NC(=O)[C@@H](NC(=O)[C@H](CC(C)C)NC(=O)[C@H](Cc1ccccc1)NC(=O)[C@H](CC(N)=O)NC(=O)[C@H](C)NC(=O)[C@H](CC(C)C)NC(=O)[C@H](CCCNC(=N)N)NC(=O)[C@H](CCC(N)=O)NC(=O)[C@@H](NC(=O)[C@H](C)NC(=O)[C@@H]1CSSC[C@H](NC(=O)[C@@H](N)CCCCN)C(=O)N[C@@H](CC(N)=O)C(=O)N[C@@H]([C@@H](C)O)C(=O)N[C@@H](C)C(=O)N[C@@H]([C@@H](C)O)C(=O)N1)[C@@H](C)O)C(C)C)C(=O)N[C@@H](CC(C)C)C(=O)N1CCC[C@H]1C(=O)N1CCC[C@H]1C(=O)N[C@H](C(=O)N[C@@H](CC(N)=O)C(=O)N[C@H](C(=O)NCC(=O)N[C@@H](CO)C(=O)N[C@@H](CC(N)=O)C(=O)N[C@H](C(=O)N[C@@H](Cc1ccc(O)cc1)C(N)=O)[C@@H](C)O)C(C)C)[C@@H](C)O [AC137, ^25,28,29Pro-h-amylin]	–	–	–
–	found to compete with amylin	des-^1Lys^18Arg^25,28,29Pro-h-amylin	shown to act as amylin agonists	negligible antagonist activity	–
–	found to compete with amylin	des-^1Lys^25,28,29Pro-h-amylin	shown to act as amylin agonists	negligible antagonist activity	–

The next lines start with the molecule.

Molecule	stability characteristics [1]	competition with amylin in the receptor binding assay [2]	amylin agonist action in the soleus muscle assay [3]	antagonist activity as measured by the soleus muscle assay [3]	amylin activity in vivo (treated test animals)
^18Arg^25,28,29Pro-h-amylin	–	found to compete with amylin	shown to act as amylin agonists	negligible antagonist activity	–
^25Pro^26Val^25,28Pro-h-amylin	–	found to compete with amylin	shown to act as amylin agonists	negligible antagonist activity	–
^28Pro-h-amylin (KCNTATCATQRLANFLVHSSNNFGAILPSTNVGSNTY; ends and bridges not checked; cysteine pairing not given here; UniProt P10997 34-70, looked up, variant S28P) [amylin agonist analogue of human amylin]	–	–	–	–	marked hyperlactemia followed by hyperglycemia
des-^1Lys-h-amylin [des-^1Lys-hamylin]	–	–	–	–	marked hyperlactemia followed by hyperglycemia
des-^1Lys^18Arg^25,28Pro-h-amylin	–	found to compete with amylin	shown to act as amylin agonists	negligible antagonist activity	marked hyperlactemia followed by hyperglycemia
